Experiments:
HCT-15 = assay: Growth inhibition of human HCT15 cells after 48 hrs by sulforhodamine B assay; format: functional; conditions: HCT-15, 48 h
SK-MEL-28 [1] = assay: Cytotoxicity against human SK-MEL-28 cells after 48 hrs by sulforhodamine B assay; format: cell-based; conditions: sk-mel-28, 48 h
UO-31 = assay: Cytotoxicity against human UO31 cells after 48 hrs by sulforhodamine B assay; format: cell-based; conditions: uo-31, 48 h
A498 = assay: Growth inhibition of human A498 cells after 48 hrs by sulforhodamine B assay; format: functional; conditions: A498, 48 h
HOP-92 = assay: Cytotoxicity against human HOP92 cells after 48 hrs by sulforhodamine B assay; format: cell-based; conditions: hop-92, 48 h
[2] = test system: Platelet-derived growth factor receptor alpha (Homo sapiens), P16234 [V561D]; assay: Inhibition of human PDGFRA V561D using gamma-33P-ATP as substrate assessed as enzyme functional activity at 1 uM by scintillation counting relative to untreated control; set-up: scale not given: the % may be the effect or the level left
MDA-MB-231 = assay: Cytotoxicity against human MDA-MB-231 cells after 48 hrs by sulforhodamine B assay; format: cell-based; conditions: mda-mb-231, 48 h
SW-620 = assay: Cytotoxicity against human SW620 cells after 48 hrs by sulforhodamine B assay; format: cell-based; conditions: sw-620, 48 h
[3] = test system: Platelet-derived growth factor receptor alpha (Homo sapiens), P16234 [D842V]; assay: Inhibition of human PDGFRA D842V using gamma-33P-ATP as substrate assessed as enzyme functional activity at 1 uM by scintillation counting relative to untreated control; set-up: scale not given: the % may be the effect or the level left
A549 = assay: Cytotoxicity against human A549 cells after 48 hrs by sulforhodamine B assay; format: cell-based; conditions: a549, 48 h
ACHN = assay: Growth inhibition of human ACHN cells after 48 hrs by sulforhodamine B assay; format: functional
MDA-MB-468 = assay: Cytotoxicity against human MDA-MB-468 cells after 48 hrs by sulforhodamine B assay; format: cell-based; conditions: mda-mb-468, 48 h
EKVX = assay: Cytotoxicity against human EKVX cells after 48 hrs by sulforhodamine B assay; format: cell-based
[4] = test system: Serine/threonine-protein kinase B-raf (Homo sapiens), P15056 [V600E]; assay: Binding affinity to human BRAF V600E mutant at 10 uM incubated for 1 hr by kinase binding assay relative to untreated control
CAKI-1 = assay: Cytotoxicity against human Caki1 cells after 48 hrs by sulforhodamine B assay; format: cell-based; conditions: caki-1, 48 h
[5] = test system: Mast/stem cell growth factor receptor Kit (Homo sapiens), P10721 [D816H]; assay: Inhibition of human KIT D816H using gamma-33P-ATP as substrate assessed as enzyme functional activity at 1 uM by scintillation counting relative to untreated control; set-up: scale not given: the % may be the effect or the level left
NCI-H460 = assay: Cytotoxicity against human NCI-H460 cells after 48 hrs by sulforhodamine B assay; format: cell-based; conditions: nci-h460, 48 h
SK-MEL-5 = assay: Growth inhibition of human SK-MEL-5 cells after 48 hrs by sulforhodamine B assay; format: functional; conditions: SK-MEL-5, 48 h
OVCAR-8 [6] = assay: Cytotoxicity against human OVCAR8 cells after 48 hrs by sulforhodamine B assay; format: cell-based; conditions: ovcar-8, 48 h
HCT-116 = assay: Cytotoxicity against human HCT116 cells after 48 hrs by sulforhodamine B assay; format: cell-based; conditions: hct-116, 48 h
[7] = test system: Tyrosine-protein kinase ABL1 (Homo sapiens), P00519 [F317L]; assay: Binding affinity to human phosphorylated ABL1 F317L mutant at 10 uM incubated for 1 hr by kinase binding assay relative to untreated control
[8] = target: Mitogen-activated protein kinase 1 (Homo sapiens) (UniProt P28482); assay: Inhibition of human MAPK1 using gamma-33P-ATP as substrate assessed as enzyme functional activity at 1 uM by scintillation counting relative to untreated control; set-up: scale not given: the % may be the effect or the level left
SK-MEL-2 [9] = assay: Growth inhibition of human SK-MEL-2 cells after 48 hrs by sulforhodamine B assay; format: functional; conditions: SK-MEL-2, 48 h
IGROV-1 = assay: Cytotoxicity against human IGROV1 cells after 48 hrs by sulforhodamine B assay; format: cell-based; conditions: igrov-1, 48 h
Hs-578T = assay: Growth inhibition of human Hs578T cells after 48 hrs by sulforhodamine B assay; format: functional
MCF7 = assay: Cytotoxicity against human MCF7 cells after 48 hrs by sulforhodamine B assay; format: cell-based; conditions: mcf7, 48 h
[10] = target: Casein kinase I isoform delta (Homo sapiens) (UniProt P48730); assay: Binding affinity to human CSNK1D at 10 uM incubated for 1 hr by kinase binding assay relative to untreated control
NCI-H226 = assay: Cytotoxicity against human NCI-H226 cells after 48 hrs by sulforhodamine B assay; format: cell-based; conditions: nci-h226, 48 h
HCC 2998 = assay: Cytotoxicity against human HCC2998 cells after 48 hrs by sulforhodamine B assay; format: cell-based; conditions: hcc 2998, 48 h
OVCAR-4 = assay: Cytotoxicity against human OVCAR4 cells after 48 hrs by sulforhodamine B assay; format: cell-based; conditions: ovcar-4, 48 h
M14 [11] = assay: Cytotoxicity against human M14 cells after 48 hrs by sulforhodamine B assay; format: cell-based; conditions: m14, 48 h
786-0 = assay: Growth inhibition of human 786-0 cells after 48 hrs by sulforhodamine B assay; format: functional; conditions: 786-0, 48 h
SF-268 = assay: Growth inhibition of human SF268 cells after 48 hrs by sulforhodamine B assay; format: functional; conditions: SF-268, 48 h
MDA-MB-435 = assay: Growth inhibition of human MDA-MB-435 cells after 48 hrs by sulforhodamine B assay; format: functional; conditions: MDA-MB-435, 48 h
SK-MEL-2 [12] = assay: Cytotoxicity against human SK-MEL-2 cells after 48 hrs by sulforhodamine B assay; format: cell-based; conditions: sk-mel-2, 48 h
BT-549 = assay: Growth inhibition of human BT549 cells after 48 hrs by sulforhodamine B assay; format: functional; conditions: BT-549, 48 h
DU-145 = assay: Cytotoxicity against human DU145 cells after 48 hrs by sulforhodamine B assay; format: cell-based; conditions: du-145, 48 h
HT-29 = assay: Growth inhibition of human HT-29 cells after 48 hrs by sulforhodamine B assay; format: functional; conditions: HT-29, 48 h
COLO 205 = assay: Cytotoxicity against human COLO205 cells after 48 hrs by sulforhodamine B assay; format: cell-based; conditions: colo 205, 48 h
SF-295 = assay: Cytotoxicity against human SF295 cells after 48 hrs by sulforhodamine B assay; format: cell-based; conditions: sf-295, 48 h
[13] = target: Tyrosine-protein kinase ABL1 (Homo sapiens) (UniProt P00519); assay: Inhibition of human ABL using gamma-33P-ATP as substrate assessed as enzyme functional activity at 1 uM by scintillation counting relative to untreated control; set-up: scale not given: the % may be the effect or the level left
SK-MEL-28 [14] = assay: Growth inhibition of human SK-MEL-28 cells after 48 hrs by sulforhodamine B assay; format: functional; conditions: SK-MEL-28, 48 h
M14 [15] = assay: Growth inhibition of human M14 cells after 48 hrs by sulforhodamine B assay; format: functional; conditions: M14, 48 h
OVCAR-8 [16] = assay: Growth inhibition of human OVCAR8 cells after 48 hrs by sulforhodamine B assay; format: functional; conditions: OVCAR-8, 48 h
HL-60(TB) = assay: Growth inhibition of human HL-60(TB) cells after 48 hrs by sulforhodamine B assay; format: functional; conditions: HL-60, 48 h

Sequence of Platelet-derived growth factor receptor alpha (Homo sapiens), P16234 [V561D] (P16234 whole entry V561D): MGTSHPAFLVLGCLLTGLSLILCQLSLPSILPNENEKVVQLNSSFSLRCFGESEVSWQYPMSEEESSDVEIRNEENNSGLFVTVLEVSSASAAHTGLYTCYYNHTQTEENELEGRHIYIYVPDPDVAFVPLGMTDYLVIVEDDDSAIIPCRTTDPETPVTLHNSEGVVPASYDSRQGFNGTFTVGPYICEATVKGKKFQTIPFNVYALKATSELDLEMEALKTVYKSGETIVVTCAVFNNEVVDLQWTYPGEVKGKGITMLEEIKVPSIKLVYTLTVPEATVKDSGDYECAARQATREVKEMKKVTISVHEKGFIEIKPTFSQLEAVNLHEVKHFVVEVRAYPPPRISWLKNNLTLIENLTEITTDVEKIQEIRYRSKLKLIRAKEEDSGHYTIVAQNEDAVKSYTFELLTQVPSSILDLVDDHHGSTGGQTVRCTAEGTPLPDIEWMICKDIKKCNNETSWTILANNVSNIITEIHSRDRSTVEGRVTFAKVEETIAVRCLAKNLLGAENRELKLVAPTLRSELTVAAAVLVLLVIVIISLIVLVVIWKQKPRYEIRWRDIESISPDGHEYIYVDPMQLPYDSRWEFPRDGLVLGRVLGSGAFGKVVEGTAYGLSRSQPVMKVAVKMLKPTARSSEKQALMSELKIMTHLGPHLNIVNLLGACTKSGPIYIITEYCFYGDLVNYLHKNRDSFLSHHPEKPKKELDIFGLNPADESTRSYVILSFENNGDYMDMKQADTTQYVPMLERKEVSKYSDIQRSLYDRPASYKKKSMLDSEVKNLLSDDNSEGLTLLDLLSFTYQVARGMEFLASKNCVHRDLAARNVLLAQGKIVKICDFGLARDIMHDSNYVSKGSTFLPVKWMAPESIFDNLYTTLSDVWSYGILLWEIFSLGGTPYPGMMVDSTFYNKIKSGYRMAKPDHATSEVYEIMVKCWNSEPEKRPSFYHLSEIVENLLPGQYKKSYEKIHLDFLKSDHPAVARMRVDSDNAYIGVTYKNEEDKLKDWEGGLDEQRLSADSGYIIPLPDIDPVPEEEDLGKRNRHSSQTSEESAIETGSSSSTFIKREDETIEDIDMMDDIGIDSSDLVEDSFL
Sequence of Mast/stem cell growth factor receptor Kit (Homo sapiens), P10721 [D816H] (P10721 whole entry D816H): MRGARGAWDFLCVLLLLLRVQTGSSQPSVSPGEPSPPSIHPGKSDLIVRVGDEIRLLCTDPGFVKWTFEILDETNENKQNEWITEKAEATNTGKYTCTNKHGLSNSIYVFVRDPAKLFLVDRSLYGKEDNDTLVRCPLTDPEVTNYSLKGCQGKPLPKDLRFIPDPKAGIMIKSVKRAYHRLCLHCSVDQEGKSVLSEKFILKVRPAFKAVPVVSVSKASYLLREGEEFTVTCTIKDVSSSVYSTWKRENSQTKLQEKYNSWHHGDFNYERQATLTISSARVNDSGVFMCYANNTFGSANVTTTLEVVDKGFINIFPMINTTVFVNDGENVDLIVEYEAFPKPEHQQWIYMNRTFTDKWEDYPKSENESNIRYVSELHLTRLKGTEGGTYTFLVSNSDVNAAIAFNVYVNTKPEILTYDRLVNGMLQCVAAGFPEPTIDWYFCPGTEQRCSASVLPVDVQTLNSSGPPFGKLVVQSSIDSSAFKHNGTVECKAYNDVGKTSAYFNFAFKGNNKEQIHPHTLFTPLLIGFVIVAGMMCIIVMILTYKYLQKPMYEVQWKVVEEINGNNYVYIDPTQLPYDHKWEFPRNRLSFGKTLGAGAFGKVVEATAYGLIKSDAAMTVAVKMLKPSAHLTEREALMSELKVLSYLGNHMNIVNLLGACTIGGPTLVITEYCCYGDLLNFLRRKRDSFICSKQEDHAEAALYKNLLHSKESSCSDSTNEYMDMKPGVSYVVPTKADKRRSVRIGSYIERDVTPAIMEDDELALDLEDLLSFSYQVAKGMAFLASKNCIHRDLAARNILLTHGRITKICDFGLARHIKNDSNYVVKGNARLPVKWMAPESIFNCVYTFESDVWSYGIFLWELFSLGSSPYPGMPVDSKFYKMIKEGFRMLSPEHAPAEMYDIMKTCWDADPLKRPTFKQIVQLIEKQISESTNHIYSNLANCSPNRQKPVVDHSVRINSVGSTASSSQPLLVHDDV
Sequence of Mitogen-activated protein kinase 1 (Homo sapiens) (P28482 whole entry): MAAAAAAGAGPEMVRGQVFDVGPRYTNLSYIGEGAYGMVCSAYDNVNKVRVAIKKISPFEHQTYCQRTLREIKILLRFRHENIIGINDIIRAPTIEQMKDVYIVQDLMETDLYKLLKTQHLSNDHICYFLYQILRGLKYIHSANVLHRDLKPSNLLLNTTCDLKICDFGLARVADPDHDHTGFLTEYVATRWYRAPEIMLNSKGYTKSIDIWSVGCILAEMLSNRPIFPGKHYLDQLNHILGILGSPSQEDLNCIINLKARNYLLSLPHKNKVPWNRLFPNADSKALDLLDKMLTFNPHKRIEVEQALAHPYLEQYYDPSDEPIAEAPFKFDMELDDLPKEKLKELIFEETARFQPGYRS
Sequence of Casein kinase I isoform delta (Homo sapiens) (P48730 whole entry, looked up, canonical isoform): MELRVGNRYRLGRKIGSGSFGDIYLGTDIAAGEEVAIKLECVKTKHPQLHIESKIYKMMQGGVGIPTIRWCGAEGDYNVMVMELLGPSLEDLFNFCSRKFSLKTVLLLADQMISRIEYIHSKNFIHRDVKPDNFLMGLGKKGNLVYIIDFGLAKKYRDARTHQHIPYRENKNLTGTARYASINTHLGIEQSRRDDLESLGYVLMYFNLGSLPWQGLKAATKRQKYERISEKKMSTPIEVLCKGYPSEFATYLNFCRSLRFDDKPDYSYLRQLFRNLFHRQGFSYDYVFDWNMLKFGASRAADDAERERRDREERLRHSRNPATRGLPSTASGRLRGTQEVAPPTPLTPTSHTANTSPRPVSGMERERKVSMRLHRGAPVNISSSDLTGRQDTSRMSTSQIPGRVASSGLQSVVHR
Sequence of Serine/threonine-protein kinase B-raf (Homo sapiens), P15056 [V600E] (P15056 whole entry V600E): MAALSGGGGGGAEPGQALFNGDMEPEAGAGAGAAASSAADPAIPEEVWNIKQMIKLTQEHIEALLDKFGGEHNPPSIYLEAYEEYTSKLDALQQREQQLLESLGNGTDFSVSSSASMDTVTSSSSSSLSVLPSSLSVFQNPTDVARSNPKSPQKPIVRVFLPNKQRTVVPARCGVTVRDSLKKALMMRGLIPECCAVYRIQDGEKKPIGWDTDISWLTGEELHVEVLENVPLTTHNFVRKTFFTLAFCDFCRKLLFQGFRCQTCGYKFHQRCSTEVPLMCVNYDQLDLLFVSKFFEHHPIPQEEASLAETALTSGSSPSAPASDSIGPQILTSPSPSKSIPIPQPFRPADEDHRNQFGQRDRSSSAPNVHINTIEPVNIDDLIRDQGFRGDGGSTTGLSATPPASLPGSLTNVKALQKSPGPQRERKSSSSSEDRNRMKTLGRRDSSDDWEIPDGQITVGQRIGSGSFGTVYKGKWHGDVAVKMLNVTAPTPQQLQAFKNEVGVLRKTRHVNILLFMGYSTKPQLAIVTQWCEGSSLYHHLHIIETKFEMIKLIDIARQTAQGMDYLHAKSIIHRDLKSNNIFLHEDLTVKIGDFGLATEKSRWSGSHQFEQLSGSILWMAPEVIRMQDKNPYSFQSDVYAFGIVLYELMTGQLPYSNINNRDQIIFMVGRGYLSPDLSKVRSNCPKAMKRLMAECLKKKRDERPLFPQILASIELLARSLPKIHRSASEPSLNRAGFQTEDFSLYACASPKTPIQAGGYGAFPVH
Sequence of Tyrosine-protein kinase ABL1 (Homo sapiens), P00519 [F317L] (P00519 whole entry F317L): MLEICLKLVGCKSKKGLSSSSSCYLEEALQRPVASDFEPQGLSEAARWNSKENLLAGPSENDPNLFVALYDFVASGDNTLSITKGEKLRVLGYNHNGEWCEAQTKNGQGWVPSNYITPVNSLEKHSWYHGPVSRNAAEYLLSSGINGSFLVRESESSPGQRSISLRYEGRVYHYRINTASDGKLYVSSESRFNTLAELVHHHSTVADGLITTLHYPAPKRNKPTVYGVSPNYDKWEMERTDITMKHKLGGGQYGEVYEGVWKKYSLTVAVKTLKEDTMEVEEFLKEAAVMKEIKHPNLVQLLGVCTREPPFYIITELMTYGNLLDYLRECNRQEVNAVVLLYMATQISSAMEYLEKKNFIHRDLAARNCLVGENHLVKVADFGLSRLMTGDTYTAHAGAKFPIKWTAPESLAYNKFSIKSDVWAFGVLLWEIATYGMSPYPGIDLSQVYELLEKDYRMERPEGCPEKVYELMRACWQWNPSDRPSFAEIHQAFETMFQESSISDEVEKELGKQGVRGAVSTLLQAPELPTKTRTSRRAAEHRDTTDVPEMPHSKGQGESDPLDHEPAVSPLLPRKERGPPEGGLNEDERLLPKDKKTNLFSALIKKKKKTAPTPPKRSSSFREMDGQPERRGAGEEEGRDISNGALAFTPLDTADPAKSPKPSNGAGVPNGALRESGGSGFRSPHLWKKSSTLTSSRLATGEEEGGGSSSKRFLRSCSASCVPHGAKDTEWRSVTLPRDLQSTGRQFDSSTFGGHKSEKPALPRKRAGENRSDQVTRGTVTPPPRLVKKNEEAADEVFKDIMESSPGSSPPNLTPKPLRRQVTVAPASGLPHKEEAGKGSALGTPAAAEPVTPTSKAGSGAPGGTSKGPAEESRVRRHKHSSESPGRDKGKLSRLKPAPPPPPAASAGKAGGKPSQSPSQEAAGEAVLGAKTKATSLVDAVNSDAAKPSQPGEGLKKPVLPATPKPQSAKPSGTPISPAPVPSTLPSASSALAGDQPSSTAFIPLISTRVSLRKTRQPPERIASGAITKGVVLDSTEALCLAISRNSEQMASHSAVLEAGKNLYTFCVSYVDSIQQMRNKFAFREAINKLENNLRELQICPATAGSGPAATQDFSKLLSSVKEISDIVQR
Sequence of Tyrosine-protein kinase ABL1 (Homo sapiens) (P00519 whole entry): as the sequence (P00519 whole entry F317L) above, with L317F counted along it
Sequence of Platelet-derived growth factor receptor alpha (Homo sapiens), P16234 [D842V] (P16234 whole entry D842V): as the sequence (P16234 whole entry V561D) above, with D561V, D842V counted along it

O=C(c1cccc(Nc2ncnc3ccccc23)c1)N1CCN(c2ncc(Cc3ccccc3)cn2)CC1
TGI (HCT-15): 3.55 µM
LC50 (SK-MEL-28 [1]): 5.25 µM
LC50 (UO-31): 4.37 µM
TGI (A498): 5.37 µM
LC50 (HOP-92): > 100 µM
Activity [2]: 100%
LC50 (MDA-MB-231): > 100 µM
LC50 (SW-620): > 100 µM
Activity [3]: 96%
LC50 (A549): 8.13 µM
TGI (ACHN): 4.57 µM
LC50 (MDA-MB-468): > 100 µM
LC50 (EKVX): > 100 µM
Activity [4]: > 50%
LC50 (CAKI-1): 4.47 µM
Activity [5]: 100%
LC50 (NCI-H460): > 100 µM
TGI (SK-MEL-5): 1.2 µM
LC50 (OVCAR-8 [6]): > 100 µM
LC50 (HCT-116): > 100 µM
Activity [7]: > 50%
Activity [8]: 73%
TGI (SK-MEL-2 [9]): 2.69 µM
LC50 (IGROV-1): 5.01 µM
TGI (Hs-578T): 7.41 µM
LC50 (MCF7): 5.62 µM
Activity [10]: 22%
LC50 (NCI-H226): 7.94 µM
LC50 (HCC 2998): 8.91 µM
LC50 (OVCAR-4): 7.59 µM
LC50 (M14 [11]): 4.68 µM
TGI (786-0): 6.61 µM
TGI (SF-268): > 100 µM
TGI (MDA-MB-435): 2.14 µM
LC50 (SK-MEL-2 [12]): 5.89 µM
TGI (BT-549): 1.74 µM
LC50 (DU-145): > 100 µM
TGI (HT-29): 9.33 µM
LC50 (COLO 205): 5.5 µM
LC50 (SF-295): > 100 µM
Activity [13]: 87%

CCc1cnc(N2CCN(C(=O)c3ccc(CNc4ncnc5ccccc45)cc3)CC2)nc1
TGI (HCT-15): > 100 µM
LC50 (SK-MEL-28 [1]): > 100 µM
LC50 (UO-31): > 100 µM
TGI (A498): > 100 µM
LC50 (HOP-92): > 100 µM
Activity [2]: 100%
LC50 (MDA-MB-231): > 100 µM
LC50 (SW-620): > 100 µM
Activity [3]: 100%
LC50 (A549): > 100 µM
TGI (ACHN): 82.5 µM
LC50 (MDA-MB-468): > 100 µM
LC50 (EKVX): > 100 µM
Activity [4]: 13%
LC50 (CAKI-1): > 100 µM
Activity [5]: 100%
LC50 (NCI-H460): > 100 µM
LC50 (OVCAR-8 [6]): > 100 µM
LC50 (HCT-116): > 100 µM
Activity [7]: 6.8%
Activity [8]: 100%
TGI (SK-MEL-2 [9]): > 100 µM
LC50 (IGROV-1): > 100 µM
TGI (SK-MEL-28 [14]): > 100 µM
TGI (Hs-578T): > 100 µM
LC50 (MCF7): > 100 µM
TGI (M14 [15]): 32.7 µM
Activity [10]: 23%
LC50 (NCI-H226): > 100 µM
LC50 (HCC 2998): > 100 µM
LC50 (OVCAR-4): > 100 µM
LC50 (M14 [11]): 93.7 µM
TGI (OVCAR-8 [16]): > 100 µM
TGI (786-0): 54.8 µM
TGI (SF-268): 100 µM
TGI (HL-60(TB)): 38.6 µM
TGI (MDA-MB-435): > 100 µM
LC50 (SK-MEL-2 [12]): > 100 µM
LC50 (DU-145): > 100 µM
TGI (HT-29): 83.2 µM
LC50 (COLO 205): > 100 µM
LC50 (SF-295): > 100 µM
Activity [13]: 80%

c1ccc(Cc2cnc(N3CCN(c4ncnc5ccccc45)CC3)nc2)cc1
TGI (HCT-15): 63.2 µM
LC50 (SK-MEL-28 [1]): > 100 µM
LC50 (UO-31): > 100 µM
TGI (A498): 24.2 µM
LC50 (HOP-92): 62 µM
Activity [2]: 20%
LC50 (MDA-MB-231): 92.8 µM
LC50 (SW-620): 59.9 µM
LC50 (A549): > 100 µM
TGI (ACHN): 42.4 µM
LC50 (MDA-MB-468): > 100 µM
LC50 (EKVX): > 100 µM
Activity [4]: > 50%
LC50 (CAKI-1): > 100 µM
Activity [5]: 30%
LC50 (NCI-H460): 55 µM
TGI (SK-MEL-5): 13.9 µM
LC50 (OVCAR-8 [6]): 71.3 µM
LC50 (HCT-116): 36.4 µM
Activity [7]: > 50%
Activity [8]: 100%
TGI (SK-MEL-2 [9]): 35.8 µM
LC50 (IGROV-1): > 100 µM
TGI (SK-MEL-28 [14]): 99.3 µM
LC50 (MCF7): > 100 µM
TGI (M14 [15]): 26.3 µM
Activity [10]: 26%
LC50 (NCI-H226): > 100 µM
LC50 (HCC 2998): > 100 µM
LC50 (OVCAR-4): > 100 µM
LC50 (M14 [11]): 51.6 µM
TGI (OVCAR-8 [16]): 25.6 µM
TGI (786-0): 36.7 µM
TGI (SF-268): 57.2 µM
TGI (HL-60(TB)): 41.8 µM
TGI (MDA-MB-435): 27.5 µM
LC50 (SK-MEL-2 [12]): 70.3 µM
TGI (BT-549): 18.4 µM
LC50 (DU-145): 79.8 µM
TGI (HT-29): 35.1 µM
LC50 (COLO 205): > 100 µM
Activity [13]: 92%

Source: ChEMBL document CHEMBL1782045, “Discovery, synthesis, and investigation of the antitumor activity of novel piperazinylpyrimidine derivatives” (Eur J Med Chem, 2011)
